ChEMBL document CHEMBL1201861, “Genomics of Drug Sensitity in Cancer screening data, Wellcome Trust Sanger Institute”

How the values were obtained:
[1] = tested on: NY; assay: cells; assay type: functional, cell-based; details: Homo sapiens
Description: SANGER: Inhibition of human NY cell growth in a cell viability assay.

[2] = tested on: RERF-LC-MS; assay: cells; assay type: functional, cell-based; details: Homo sapiens;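 also: growth inhibition of human RERF-LC-MS cells, read out by a cell viability assay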
Description: SANGER: Inhibition of human RERF-LC-MS cell growth in a cell viability assay.

[3] = tested on: CAL-12T; assay: cells; assay type: functional, cell-based, Homo sapiens; details: Homo sapiens, CAL-12T;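 also: growth inhibition of human CAL-12T cells, read out with a cell viability assay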
Description: SANGER: Inhibition of human CAL-12T cell growth in a cell viability assay.

[4] = tested on: SiHa; assay: cells; assay type: functional, cell-based; details: Homo sapiens;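 also: Viability-based readout of growth inhibition in SiHa cells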
Description: SANGER: Inhibition of human SiHa cell growth in a cell viability assay.

[5] = tested on: BFTC-905; assay: cells; assay type: functional, cell-based; details: Homo sapiens
Description: SANGER: Inhibition of human BFTC-905 cell growth in a cell viability assay.

[6] = tested on: GMS-10; assay: cells; assay type: functional, cell-based; details: Homo sapiens;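 also: growth inhibition of GMS-10 cells, read out as cell viability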
Description: SANGER: Inhibition of human GMS-10 cell growth in a cell viability assay.

[7] = tested on: HCC1937; assay: cells; assay type: functional, cell-based; details: Homo sapiens;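 also: growth inhibition measured with a cell viability read-out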
Description: SANGER: Inhibition of human HCC1937 cell growth in a cell viability assay.

[8] = tested on: NCI-H522; assay: cells; assay type: functional, cell-based; details: Homo sapiens;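 also: cell viability assay measuring growth inhibition of human NCI-H522 cells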
Description: SANGER: Inhibition of human NCI-H522 cell growth in a cell viability assay.

[9] = tested on: 786-0; assay: cells; assay type: functional, cell-based; details: Homo sapiens
Description: SANGER: Inhibition of human 786-0 cell growth in a cell viability assay.

[10] = tested on: SK-OV-3; assay: cells; assay type: functional, cell-based; details: Homo sapiens;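 also: growth inhibition of SK-OV-3 human cells, read out with a cell viability assay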
Description: SANGER: Inhibition of human SK-OV-3 cell growth in a cell viability assay.

[11] = tested on: SK-MEL-30; assay: cells; assay type: functional, cell-based; details: Homo sapiens;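 also: growth inhibition of SK-MEL-30 cells, determined with a cell viability assay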
Description: SANGER: Inhibition of human SK-MEL-30 cell growth in a cell viability assay.

[12] = tested on: RPMI-2650; assay: cells; assay type: functional, cell-based; details: Homo sapiens
Description: SANGER: Inhibition of human RPMI-2650 cell growth in a cell viability assay.

[13] = tested on: NB12; assay: cells; assay type: functional, cell-based; details: Homo sapiens;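 also: growth inhibition of human NB12 cells, read out by a cell viability assay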
Description: SANGER: Inhibition of human NB12 cell growth in a cell viability assay.

[14] = tested on: SW756; assay: cells; assay type: functional, cell-based; details: Homo sapiens;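 also: growth inhibition of human SW756 cells, read out with a cell viability assay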
Description: SANGER: Inhibition of human SW756 cell growth in a cell viability assay.

[15] = tested on: OVCAR-5; assay: cells; assay type: functional, cell-based; details: Homo sapiens;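 also: growth inhibition of human OVCAR-5 cells, read out with a cell viability assay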
Description: SANGER: Inhibition of human OVCAR-5 cell growth in a cell viability assay.

[16] = tested on: BHY; assay: cells; assay type: functional, cell-based; details: Homo sapiens;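 also: cell growth inhibition read out by a viability assay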
Description: SANGER: Inhibition of human BHY cell growth in a cell viability assay.

[17] = tested on: COLO-792; assay: cells; assay type: functional, cell-based; details: Homo sapiens
Description: SANGER: Inhibition of human COLO-792 cell growth in a cell viability assay.

[18] = tested on: Calu-3; assay: cells; assay type: functional, cell-based; details: Homo sapiens;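 also: growth inhibition of human Calu-3 cells, determined with a cell viability assay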
Description: SANGER: Inhibition of human Calu-3 cell growth in a cell viability assay.

[19] = tested on: SNU-449; assay: cells; assay type: functional, cell-based; details: Homo sapiens
Description: SANGER: Inhibition of human SNU-449 cell growth in a cell viability assay.

[20] = tested on: MFE-280; assay: cells; assay type: functional, cell-based; details: Homo sapiens;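 also: growth inhibition of MFE-280 cells, determined with a cell viability readout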
Description: SANGER: Inhibition of human MFE-280 cell growth in a cell viability assay.

[21] = tested on: RD; assay: cells; assay type: functional, cell-based; details: Homo sapiens
Description: SANGER: Inhibition of human RD cell growth in a cell viability assay.

[22] = tested on: 647-V; assay: cells; assay type: functional, cell-based; details: Homo sapiens;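 also: growth inhibition of 647-V cells, read out with a cell viability assay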
Description: SANGER: Inhibition of human 647-V cell growth in a cell viability assay.

[23] = tested on: VMRC-RCZ; assay: cells; assay type: functional, cell-based; details: Homo sapiens
Description: SANGER: Inhibition of human VMRC-RCZ cell growth in a cell viability assay.

[24] = tested on: HO-1-N-1; assay: cells; assay type: functional, cell-based; details: Homo sapiens;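 also: growth inhibition of human HO-1-N-1 cells, read out with a cell viability assay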
Description: SANGER: Inhibition of human HO-1-N-1 cell growth in a cell viability assay.

[25] = tested on: HN; assay: cells; assay type: functional, cell-based; details: Homo sapiens
Description: SANGER: Inhibition of human HN cell growth in a cell viability assay.

[26] = tested on: SW1990; assay: cells; assay type: functional, cell-based; details: Homo sapiens
Description: SANGER: Inhibition of human SW1990 cell growth in a cell viability assay.

[27] = tested on: NCI-H596; assay: cells; assay type: functional, cell-based; details: Homo sapiens;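 also: growth inhibition of NCI-H596 cells, read out with a cell viability assay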
Description: SANGER: Inhibition of human NCI-H596 cell growth in a cell viability assay.

[28] = tested on: COR-L105; assay: cells; assay type: functional, cell-based; details: Homo sapiens
Description: SANGER: Inhibition of human COR-L105 cell growth in a cell viability assay.

[29] = tested on: HT-1376; assay: cells; assay type: functional, cell-based; details: Homo sapiens
Description: SANGER: Inhibition of human HT-1376 cell growth in a cell viability assay.

[30] = tested on: NCI-H2170; assay: cells; assay type: functional, cell-based; details: Homo sapiens;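 also: cell viability assay measuring growth inhibition of human NCI-H2170 cancer cells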
Description: SANGER: Inhibition of human NCI-H2170 cell growth in a cell viability assay.

[31] = tested on: ESS-1; assay: cells; assay type: functional, cell-based; details: Homo sapiens;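 also: growth inhibition of human ESS-1 cells, read out by a cell viability assay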
Description: SANGER: Inhibition of human ESS-1 cell growth in a cell viability assay.

[32] = tested on: MDA-MB-231; assay: cells; assay type: functional, cell-based; details: Homo sapiens
Description: SANGER: Inhibition of human MDA-MB-231 cell growth in a cell viability assay.

[33] = tested on: CAL-54; assay: cells; assay type: functional, cell-based; details: Homo sapiens;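 also: growth inhibition of CAL-54 cells, read out by a viability measurement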
Description: SANGER: Inhibition of human CAL-54 cell growth in a cell viability assay.

[34] = tested on: SW626; assay: cells; assay type: functional, cell-based; details: Homo sapiens;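 also: growth inhibition of SW626 cells, measured with a cell viability assay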
Description: SANGER: Inhibition of human SW626 cell growth in a cell viability assay.

[35] = tested on: SK-HEP1; assay: cells; assay type: functional, cell-based, SK-HEP-1; details: Homo sapiens;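 also: cell viability readout used to quantify reduction in proliferation of human SK-HEP-1 cells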
Description: SANGER: Inhibition of human SK-HEP-1 cell growth in a cell viability assay.

[36] = tested on: 8505C; assay: cells; assay type: functional, cell-based; details: Homo sapiens
Description: SANGER: Inhibition of human 8505C cell growth in a cell viability assay.

[37] = tested on: HTC-C3; assay: cells; assay type: functional, cell-based; details: Homo sapiens;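 also: inhibition of cell growth, read out with a cell viability assay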
Description: SANGER: Inhibition of human HTC-C3 cell growth in a cell viability assay.

[38] = tested on: LK-2; assay: cells; assay type: functional, cell-based; details: Homo sapiens;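 also: growth inhibition of LK-2 cells, read out with a viability assay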
Description: SANGER: Inhibition of human LK-2 cell growth in a cell viability assay.

[39] = tested on: KYSE-150 cell line; assay: cells; assay type: functional, cell-based; details: Homo sapiens;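 also: growth inhibition of human KYSE-150 cells, read out with a cell viability assay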
Description: SANGER: Inhibition of human KYSE-150 cell growth in a cell viability assay.

[40] = tested on: NCI-H2228; assay: cells; assay type: functional, cell-based; details: Homo sapiens;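 also: growth inhibition of human NCI-H2228 cells, read out by a cell viability assay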
Description: SANGER: Inhibition of human NCI-H2228 cell growth in a cell viability assay.

[41] = tested on: HOS; assay: cells; assay type: functional, cell-based; details: Homo sapiens;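 also: growth inhibition of human HOS cells, read out with a cell viability assay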
Description: SANGER: Inhibition of human HOS cell growth in a cell viability assay.

[42] = tested on: 769-P; assay: cells; assay type: functional, cell-based; details: Homo sapiens
Description: SANGER: Inhibition of human 769-P cell growth in a cell viability assay.

[43] = tested on: CAL-27; assay: cells; assay type: functional, cell-based; details: Homo sapiens;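 also: Viability-based readout, IC50 reflecting inhibition of CAL-27 cell growth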
Description: SANGER: Inhibition of human CAL-27 cell growth in a cell viability assay.

[44] = tested on: MDA-MB-415; assay: cells; assay type: functional, cell-based; details: Homo sapiens
[45] = tested on: NCI-H2030; assay: cells; assay type: functional, cell-based; details: Homo sapiens;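 also: growth inhibition of human NCI-H2030 cells, read out by a cell viability assay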
Description: SANGER: Inhibition of human NCI-H2030 cell growth in a cell viability assay.

[46] = tested on: EB2; assay: cells; assay type: functional, cell-based; details: Homo sapiens;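 also: growth inhibition of EB2 cells, read out with a cell viability assay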
Description: SANGER: Inhibition of human EB2 cell growth in a cell viability assay.

[47] = tested on: UO-31; assay: cells; assay type: functional, cell-based; details: Homo sapiens
Description: SANGER: Inhibition of human U031 cell growth in a cell viability assay.

[48] = tested on: A-375; assay: cells; assay type: functional, cell-based; details: Homo sapiens;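 also: growth inhibition of A375 cells, read out with a cell viability assay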
Description: SANGER: Inhibition of human A375 cell growth in a cell viability assay.

[49] = tested on: LP-1; assay: cells; assay type: functional, cell-based; details: Homo sapiens;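 also: growth inhibition of human LP-1 cells, with the read-out taken from a cell viability assay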
Description: SANGER: Inhibition of human LP-1 cell growth in a cell viability assay.

[50] = tested on: TALL-1; assay: cells; assay type: functional, cell-based; details: Homo sapiens;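 also: growth inhibition of cultured human TALL-1 cells, read out by a cell viability assay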
Description: SANGER: Inhibition of human TALL-1 cell growth in a cell viability assay.

[51] = tested on: HCC1599; assay: cells; assay type: functional, cell-based; details: Homo sapiens;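 also: growth inhibition of HCC1599 cells, read out in a cell viability assay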
Description: SANGER: Inhibition of human HCC1599 cell growth in a cell viability assay.

[52] = tested on: PF-382; assay: cells; assay type: functional, cell-based; details: Homo sapiens
Description: SANGER: Inhibition of human PF-382 cell growth in a cell viability assay.

[53] = tested on: P31-FUJ; assay: cells; assay type: functional, cell-based; details: Homo sapiens;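 also: growth inhibition of P31-FUJ cells, read out with a viability assay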
Description: SANGER: Inhibition of human P31-FUJ cell growth in a cell viability assay.

[54] = tested on: MRK-nu-1; assay: cells; assay type: functional, cell-based; details: Homo sapiens;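 also: cell viability assay measuring growth suppression of human MRK-nu-1 cells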
Description: SANGER: Inhibition of human MRK-nu-1 cell growth in a cell viability assay.

[55] = tested on: NCI-H345; assay: cells; assay type: functional, cell-based; details: Homo sapiens;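 also: growth inhibition of NCI-H345 cells measured with a cell viability assay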
Description: SANGER: Inhibition of human NCI-H345 cell growth in a cell viability assay.

[56] = tested on: A 172; assay: cells; assay type: functional, cell-based; details: Homo sapiens;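 also: growth inhibition of A172 cells, measured with a cell viability readout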
Description: SANGER: Inhibition of human A172 cell growth in a cell viability assay.

[57] = tested on: NCI-H889; assay: cells; assay type: functional, cell-based; details: Homo sapiens;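 also: cell growth inhibition of the cell line, read out with a viability assay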
Description: SANGER: Inhibition of human NCI-H889 cell growth in a cell viability assay.

[58] = tested on: 23132-87; assay: cells; assay type: functional, cell-based; details: Homo sapiens
Description: SANGER: Inhibition of human 23132-87 cell growth in a cell viability assay.

[59] = tested on: MONO-MAC-6; assay: cells; assay type: functional, cell-based; details: Homo sapiens;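 also: cell viability assay measuring growth inhibition of human MONO-MAC-6 cells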
Description: SANGER: Inhibition of human MONO-MAC-6 cell growth in a cell viability assay.

[60] = tested on: BL-70; assay: SANGER: Inhibition of human BL-70 cell growth in a cell viability assay.; assay type: functional, cell-based
[61] = tested on: YT; assay: cells; assay type: functional, cell-based; details: Homo sapiens
Description: SANGER: Inhibition of human YT cell growth in a cell viability assay.

[62] = tested on: D-542MG; assay: cells; assay type: functional, cell-based; details: Homo sapiens
Description: SANGER: Inhibition of human D-542MG cell growth in a cell viability assay.

[63] = tested on: NCI-H1694; assay: cells; assay type: functional, cell-based; details: Homo sapiens;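 also: cell viability assay measuring inhibition of growth in human NCI-H1694 cells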
Description: SANGER: Inhibition of human NCI-H1694 cell growth in a cell viability assay.

[64] = tested on: BL-41; assay: cells; assay type: functional, cell-based; details: Homo sapiens;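 also: growth inhibition of human BL-41 cells, read out with a cell viability assay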
Description: SANGER: Inhibition of human BL-41 cell growth in a cell viability assay.

[65] = tested on: NCI-H1963; assay: cells; assay type: functional, cell-based; details: Homo sapiens;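 also: cell growth inhibition of the human line, determined with a cell viability assay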
Description: SANGER: Inhibition of human NCI-H1963 cell growth in a cell viability assay.

Question: Which results are given for `CC(=O)c1c(C)c2cnc(Nc3ccc(N4CCNCC4)cn3)nc2n(C2CCCC2)c1=O` [PALBOCICLIB]?
Answer: IC50 [1]: > 4000 nM; IC50 [2]: > 4000 nM; IC50 [3]: > 4000 nM; IC50 [4]: > 4000 nM; IC50 [5]: 1240 nM; IC50 [6]: > 4000 nM; IC50 [7]: > 4000 nM; IC50 [8]: > 4000 nM; IC50 [9]: 2150 nM; IC50 [10]: > 4000 nM; IC50 [11]: > 4000 nM; IC50 [12]: > 4000 nM; IC50 [13]: > 4000 nM; IC50 [14]: > 4000 nM; IC50 [15]: 900 nM; IC50 [16]: 1470 nM; IC50 [17]: > 4000 nM; IC50 [18]: > 4000 nM; IC50 [19]: > 4000 nM; IC50 [20]: > 4000 nM; IC50 [21]: > 4000 nM; IC50 [22]: > 4000 nM; IC50 [23]: 3360 nM; IC50 [24]: 963 nM; IC50 [25]: 1540 nM; IC50 [26]: > 4000 nM; IC50 [27]: > 4000 nM; IC50 [28]: > 4000 nM; IC50 [29]: > 4000 nM; IC50 [30]: > 4000 nM; IC50 [31]: > 4000 nM; IC50 [32]: 3820 nM; IC50 [33]: 2200 nM; IC50 [34]: > 4000 nM; IC50 [35]: 2590 nM; IC50 [36]: > 4000 nM; IC50 [37]: 433 nM; IC50 [38]: > 4000 nM; IC50 [39]: 1000 nM; IC50 [40]: > 4000 nM; IC50 [41]: 1350 nM; IC50 [42]: > 4000 nM; IC50 [43]: 495 nM; IC50 [44]: > 4000 nM

Question: With `CC(C)=CC[C@@H](O)C1=CC(=O)c2c(O)ccc(O)c2C1=O` [SHIKONIN] as the molecule, how does the IC50 [1] read?
Answer: 1050 nM

Question: And the IC50 [2]?
Answer: 4190 nM

Question: What about the IC50 [3] of the same molecule?
Answer: 1900 nM

Question: And the IC50 [4]?
Answer: > 16000 nM

Question: What about the IC50 [5] of the same molecule?
Answer: 284 nM

Question: What about the IC50 [45] of the same molecule?
Answer: 563 nM

Question: And the IC50 [46]?
Answer: 311 nM

Question: And the IC50 [47]?
Answer: 771 nM

Question: And the IC50 [6]?
Answer: 11500 nM

Question: And the IC50 [7]?
Answer: 1660 nM

Question: What about the IC50 [8] of the same molecule?
Answer: 560 nM

Question: What about the IC50 [9] of the same molecule?
Answer: 344 nM

Question: What about the IC50 [10] of the same molecule?
Answer: 1560 nM

Question: What about the IC50 [48] of the same molecule?
Answer: 311 nM

Question: What about the IC50 [49] of the same molecule?
Answer: 686 nM

Question: What about the IC50 [11] of the same molecule?
Answer: 695 nM

Question: And the IC50 [50]?
Answer: > 16000 nM

Question: What about the IC50 [12] of the same molecule?
Answer: 375 nM

Question: What about the IC50 [13] of the same molecule?
Answer: 666 nM

Question: What about the IC50 [14] of the same molecule?
Answer: 762 nM

Question: And the IC50 [51]?
Answer: 388 nM

Question: And the IC50 [15]?
Answer: 1120 nM

Question: And the IC50 [52]?
Answer: 790 nM

Question: And the IC50 [53]?
Answer: 2070 nM

Question: And the IC50 [16]?
Answer: 564 nM

Question: What about the IC50 [17] of the same molecule?
Answer: > 16000 nM

Question: And the IC50 [18]?
Answer: 1110 nM

Question: And the IC50 [54]?
Answer: 102 nM

Question: What about the IC50 [19] of the same molecule?
Answer: 813 nM

Question: What about the IC50 [20] of the same molecule?
Answer: 4950 nM

Question: What about the IC50 [55] of the same molecule?
Answer: 990 nM

Question: What about the IC50 [21] of the same molecule?
Answer: 449 nM

Question: What about the IC50 [22] of the same molecule?
Answer: 359 nM

Question: What about the IC50 [23] of the same molecule?
Answer: 547 nM

Question: What about the IC50 [24] of the same molecule?
Answer: 462 nM

Question: What about the IC50 [25] of the same molecule?
Answer: 1370 nM

Question: And the IC50 [26]?
Answer: 1620 nM

Question: And the IC50 [27]?
Answer: 818 nM

Question: And the IC50 [28]?
Answer: 230 nM

Question: And the IC50 [29]?
Answer: 915 nM

Question: And the IC50 [30]?
Answer: 1720 nM

Question: And the IC50 [56]?
Answer: 470 nM

Question: And the IC50 [31]?
Answer: > 16000 nM

Question: What about the IC50 [32] of the same molecule?
Answer: 1020 nM

Question: What about the IC50 [57] of the same molecule?
Answer: > 16000 nM

Question: What about the IC50 [33] of the same molecule?
Answer: 1420 nM

Question: And the IC50 [58]?
Answer: 2110 nM

Question: What about the IC50 [34] of the same molecule?
Answer: 635 nM

Question: And the IC50 [35]?
Answer: 548 nM

Question: What about the IC50 [36] of the same molecule?
Answer: 3100 nM

Question: And the IC50 [37]?
Answer: 542 nM

Question: What about the IC50 [38] of the same molecule?
Answer: 8570 nM

Question: What about the IC50 [39] of the same molecule?
Answer: 902 nM

Question: And the IC50 [59]?
Answer: 245 nM

Question: And the IC50 [60]?
Answer: 278 nM

Question: And the IC50 [40]?
Answer: 901 nM

Question: What about the IC50 [61] of the same molecule?
Answer: 384 nM

Question: And the IC50 [62]?
Answer: 581 nM

Question: And the IC50 [41]?
Answer: 186 nM

Question: What about the IC50 [63] of the same molecule?
Answer: 840 nM

Question: What about the IC50 [42] of the same molecule?
Answer: 689 nM

Question: What about the IC50 [43] of the same molecule?
Answer: > 16000 nM

Question: What about the IC50 [64] of the same molecule?
Answer: 483 nM

Question: What about the IC50 [65] of the same molecule?
Answer: 100 nM

Question: And the IC50 [44]?
Answer: 2280 nM
